From patent US5556996A, “Oxiranyls disubstituted with a phenyl group and a substituted chromanyl or tetrahydroquinolinyl group having retinoid like activity” (Allergan, priority 1994, dated 1996)

System: ornithine decarboxylase (ODC)
Assay: Inhibition of TPA induction of ornithine decarboxylase (ODC assay)
Assay type: biochemical
Conditions: TPA-induced ODC activity
Source text: The retinoic acid-like activity of these compounds is confirmed through the classic measure of retinoic acid activity involving the effects of retinoic acid on ornithine decarboxylase. The original work on the correlation between retinoic acid and decrease in cell proliferation was done by Verma & Boutwell, Cancer Research, 1977, 37,2196-2201. That reference discloses that ornithine decarboxylase (ODC) activity increased precedent to polyamine biosynthesis. It has been established elsewhere that increases in polyamine synthesis can be correlated or associated with cellular proliferation. Thus, if ODC activity could be inhibited, cell hyperproliferation could be modulated. Although all cases for ODC activity increases are unknown, it is known that 12-0-tetradecanoylphorbol-13-acetate (TPA) induces ODC activity. Retinoic acid inhibits this induction of ODC activity by TPA. […] Activity of exemplary compounds of the present invention in the above-described ODC assay is disclosed in Table 1 which provides IC80 data for the exemplary compounds. ("IC80 " is that concentration of the test compound which causes 80% inhibition in the ODC assay).

SMILES | IC80 conc (concentration of the test compound which causes 80% inhibition in the ODC assay)
CC1(C)CC(C)(C)c2cc([C@]3(C)O[C@H]3c3ccc(C(=O)O)cc3)ccc2O1 (relative stereo) [Compound 2, (±)-(E)T4-[2-methyl-2-(2,2,4,4-tetramethylchroman-6-yl)oxiran-1-yl]benzoic acid] | 73 nmols
CCOC(=O)c1ccc([C@@H]2O[C@@]2(C)c2ccc3c(c2)C(C)(C)CC(C)(C)O3)cc1 (relative stereo) [Compound 1, Ethyl(±)-(E)-4-[2-methyl-2-(2,2,4,4-tetramethylchroman-6-yl)oxiran-1-yl]benzoate] | > 300 nmols
